Assay [1] deals with T1, Progesterone receptor (Homo sapiens, UniProt P06401).
T1 sequence (P06401 whole entry): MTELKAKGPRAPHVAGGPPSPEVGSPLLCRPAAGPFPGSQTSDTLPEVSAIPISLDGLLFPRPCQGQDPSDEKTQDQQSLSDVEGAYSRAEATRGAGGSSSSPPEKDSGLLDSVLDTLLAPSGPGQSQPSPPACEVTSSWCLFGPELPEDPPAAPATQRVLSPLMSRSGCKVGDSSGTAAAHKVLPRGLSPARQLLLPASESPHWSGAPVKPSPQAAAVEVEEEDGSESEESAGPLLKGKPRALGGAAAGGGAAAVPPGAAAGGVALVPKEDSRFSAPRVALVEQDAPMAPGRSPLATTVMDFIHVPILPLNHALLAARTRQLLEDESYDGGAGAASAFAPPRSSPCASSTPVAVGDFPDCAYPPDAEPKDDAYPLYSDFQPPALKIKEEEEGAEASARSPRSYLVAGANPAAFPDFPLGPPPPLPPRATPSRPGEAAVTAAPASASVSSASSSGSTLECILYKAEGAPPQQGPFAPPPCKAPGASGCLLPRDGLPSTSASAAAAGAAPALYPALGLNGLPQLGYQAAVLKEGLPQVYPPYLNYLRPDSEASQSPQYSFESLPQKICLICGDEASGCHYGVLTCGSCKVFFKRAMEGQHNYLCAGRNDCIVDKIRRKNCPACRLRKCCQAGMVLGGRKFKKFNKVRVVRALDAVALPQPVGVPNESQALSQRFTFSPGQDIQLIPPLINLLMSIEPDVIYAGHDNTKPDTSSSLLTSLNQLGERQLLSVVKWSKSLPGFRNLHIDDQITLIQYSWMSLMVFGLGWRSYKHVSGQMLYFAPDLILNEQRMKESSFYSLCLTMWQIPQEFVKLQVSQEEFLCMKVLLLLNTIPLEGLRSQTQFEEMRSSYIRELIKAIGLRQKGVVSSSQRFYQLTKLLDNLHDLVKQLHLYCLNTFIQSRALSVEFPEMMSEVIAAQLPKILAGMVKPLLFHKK
Nature of the assay: Dissociation constant for [3H]ORG2058 at human progesterone receptor at 308 K.

Assay [2] deals with T1, Progesterone receptor. Nature of the assay: Dissociation constant for [3H]ORG2058 at human progesterone receptor at 293K.
Assay [3] deals with T1, Progesterone receptor. Nature of the assay: Dissociation constant for [3H]ORG2058 at human progesterone receptor at 273 K.
The target of assay [4] is T1, Progesterone receptor. The assay is described as follows: Dissociation constant for [3H]ORG2058 at human progesterone receptor at 298 K.
Assay [5] has as its target T1, Progesterone receptor. The assay is described as follows: Dissociation constant for [3H]-ORG2058 at human progesterone receptor at 278 K.
The target of assay [6] is T1, Progesterone receptor. Nature of the assay: Dissociation constant for [3H]ORG2058 at human progesterone receptor at 303 K.
The target in assay [7] is T1, Progesterone receptor. Nature of the assay: Dissociation constant for [3H]-ORG2058 at human progesterone receptor at 283 K.
The target in assay [8] is T1, Progesterone receptor. The assay is described as follows: Dissociation constant for [3H]-ORG2058 at human progesterone receptor at 310K.
For assay [9], the target named is T1, Progesterone receptor. The assay is described as follows: Dissociation constant for [3H]ORG2058 at human progesterone receptor at 288 K.
Assay [10] addresses T2, Adenosine receptor A1 (Homo sapiens, UniProt P30542).
T2 sequence (P30542 whole entry): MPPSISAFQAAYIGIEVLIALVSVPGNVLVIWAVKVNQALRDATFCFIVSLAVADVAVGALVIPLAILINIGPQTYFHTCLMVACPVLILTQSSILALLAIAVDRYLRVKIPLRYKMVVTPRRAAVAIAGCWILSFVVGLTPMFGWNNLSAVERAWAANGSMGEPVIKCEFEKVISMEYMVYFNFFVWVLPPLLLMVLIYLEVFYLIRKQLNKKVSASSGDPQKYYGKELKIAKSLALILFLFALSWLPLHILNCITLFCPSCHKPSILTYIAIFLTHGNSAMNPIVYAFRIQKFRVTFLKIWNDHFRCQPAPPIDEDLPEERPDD
Description: (§1) Dissociation constant against Adenosine A1 receptor

The target in assay [11] is T3, Adenosine receptor A1 (Homo sapiens) (UniProt P30542).
T3 sequence (whole entry): T2 sequence (P30542 whole entry)
Description: as §1

Consider three molecules from ChEMBL document CHEMBL1142733, “Binding thermodynamics as a tool to investigate the mechanisms of drug-receptor interactions: thermodynamics of cytoplasmic steroid/nuclear receptors in comparison with membrane receptors” (J Med Chem, 2005).

In general, Kd refers to a measure of binding affinity in units of concentration.

Turning to `CC[C@@H]1C[C@H]2[C@@H]3CCC4=CC(=O)CC[C@@H]4[C@H]3CC[C@]2(C)[C@H]1C(=O)CO`, the Kd in [1] came out at 0.00456 µM; in assay [2], 0.00264 µM; in [3], 0.00328 µM; in [4], 0.00316 µM; in assay [5], 0.0027 µM; in assay [6], 0.00413 µM. The Kd came out at 0.00249 µM in assay [7], 0.00542 µM in assay [8] and 0.00232 µM in assay [9].

`CC(C)Cn1c(=O)n(C)c(=O)c2[nH]cnc21` [ISOBUTYLMETHYLXANTHINE]: the Kd in [10] amounted to 5.9 µM. That is a single-digit micromolar value.

Take `CC(C)Cn1c(=O)n(C)c(=O)c2nc[nH]c21`: the KD hydro in assay [11] amounted to 19000 µM.
